Here are results for 15 compounds from article PMC7106487, “Design, Synthesis and Discovery of N,N’‐Carbazoyl‐aryl‐urea Inhibitors of Zika NS5 Methyltransferase and Virus Replication” (Chemmedchem, 2020).

Where two headings read alike, the source gives them in different places. Some results are limits rather than exact numbers.

A short description of data set [1]: in vitro. The data set is classed as cell-based. To be noted: ZIKV CC50. As for the experimental part: (§1) Finally, the ability of all the derivatives synthesized in this work to inhibit ZIKV replication was assessed. […]
The subject of the next data set is host cell. The data set can be described thus: in vitro. The format is cell-based. As for the experimental part:
as §1

The next data set concerns the target T1, ZIKV NS5-MTase (Zika virus, UniProt Q32ZE1).
T1 construct: made in house
As to the kind of experiment: MTase inhibition assay ([3H]-SAM, GpppAC4 RNA substrate, DEAE filter binding). The data set is classed as biochemical. The conditions noted are these: for inhibition at 50 µM / inhibition of ZIKV NS5-MTase: initial screen, compounds at 50 μM, 30 min at 30 °C. Here is the method:
(§2) The library of compounds 9, 11, 12, 14, 15, 16 and 21 was then assessed on different purified recombinant MTases. All compounds were initially screened at 50 μM against ZIKV NS5‐MTase and hRNMT as well as against DENV NS5‐MTase due to its similarity with ZIKV protein. The SAM mimetic sinefungin was included as control.
(§3) The MTases were incubated with radiolabeled [^3H]‐SAM together with the GpppAC4 RNA substrate and the different compounds at 50 μM. The reaction was stopped after 30 mins at 30 °C. The sample products were filtered on a DEAE membrane to remove non‐incorporated [^3H]‐SAM, and radioactivity transferred on the RNA substrate was counted. […]
(§4) DENV, ZIKV and hRNMT MTase production and purification
(§5) The coding sequence of the ZIKV MTase domain was cloned in pDest 14 (Invitrogen) expression vector as recently described,9 and the DENV and ZIKV MTase were produced and purified following the protocols applied for the DENV MTase.10 The human N7-MTase (hRNMT) was cloned in pDest 14 (Invitrogen) expression vector as described.11 The hRNMT was produced in e.coli Rosetta (DE3) cells transformed with pDest14/6His -hRNMT and purified on immobilized-metal-affinity chromatography (IMAC, Amersham Biosciences) followed by hearine, as described previously.11
(§6) The MTase activity of the different recombinant proteins was assayed upon pre -incubation of the MTase (5 min) with a selected fragment and the reactions were started by addition of a […]
(§7) small capped RNA substrate GpppAC4 with the [3H]AdoMet.12 The MTase activity assay was performed in 20 µl samples containing 40 mM Tris-HCl pH 7.5, 5 mM DTT (except for hRNMT), 10 µM AdoMet (0.2-2 µCi [3H]SAM), 1 µM of DENV or ZIKV MTase or 200 nM of hRNMT, 1 µM GpppAC4 in presence of 1µl of compounds solubilized in DMSO 100%.
(§8) Reactions were incubated at 30°C for 30 min and stopped by 20-fold dilution in an ice-cold 100 µM AdoHcy (SAH) solution. Samples were then transferred onto a DEAE membrane (DEAE Filtermat; Wallac) by using a Filtermat Harvester (Packard Instruments) washed with 0.01 M ammonium formate (pH 8.0), water and 95 % ethanol, and the radioactivity transferred onto RNA was measured using a Wallac 1450 MicroBeta Trilux Liquid Scintillation Counter.
(§9) The inhibitor concentration at 50% activity (IC50) was determined by performing the MTase assays in presence of serial dilution of the inhibitor in DMSO (final concentration in the assay 5%). All data points were measured in duplicate. The IC50 values were determined by curve fitting with Prism software using a logistic dose-response function: % activity = 100/(1+[I]/IC50)b, where b corresponds to the slope factor and [I] to inhibitor concentration. […]
(§10) Spectrometer using low-resolution ESI or high-resolution nano ESI techniques. The purity of the compounds was assessed by reverse -phase liquid chromatography coupled with a mass spectrometer (Agilent series 1100 LC/MSD) with a UV detector at λ = 254 nm and an electrospray ionization source (ESI). HPLC analysis was carried out using a Perkin -Elmer 1100 HPLC system coupled with UV/Vis set to 254 nm. Mass spectra were acquired in positive mode scanning over the mass range of 50–1500. The following ion source parameters were used: drying gas flow, […]; nebulize pressure, 40 psig; and drying gas temperature, 350 […]
(§11) performed using commercially available pre-coated plates and visualized with UV light at 254 nm; KMnO4 was used to reveal the products. Flash column chromatography was carried out using Sigma Aldrich silica gel particle size, 40-63 µm particle size 60 Å. All reactions were conducted under a nitrogen atmosphere in oven-dried glassware unless stated otherwise. All solvents and commercially available reagents were used as received.

The next data set deals with T2, hRNMT (human N7-MTase) (Homo sapiens, UniProt O43148).
T2 construct: 6His (N); made in house; host or cells: E. coli Rosetta (DE3)
Described as above. The format is biochemical. The conditions noted are these: dose-response, 200 nM hRNMT, 10 µM AdoMet, 30 min at 30 °C. As for the experimental part:
as §2, §3, §4, §5, §6, §7, §8, §9, §10, §11

A further data set has as its system ZIKV. As to the kind of experiment: CPE-reduction assay, inhibition of ZIKV replication. Also noted: species or system Zika virus (ZIKV). To be noted: cell-based CPE-reduction assay; for EC50: Zika virus. Here is the method: as §1
A further data set addresses DENV NS5-MTase (Dengue virus type 3, UniProt P27915). As to the kind of experiment: MTase inhibition assay ([3H]-SAM, GpppAC4 RNA substrate, DEAE filter binding). The format is biochemical. The conditions noted are these: initial screen, compounds at 50 μM, 30 min at 30 °C. As for the experimental part: as §2, §3, §4, §5, §6, §7, §8, §9, §10, §11
For the next data set, the system named is DENV. As to the kind of experiment: Cell-based antiviral activity against DENV. To be noted: Dengue virus; cell-based assay.
The nature of data set [2]: in vitro. The data set is classed as cell-based.

T1 sequence (Q32ZE1 2517-2781): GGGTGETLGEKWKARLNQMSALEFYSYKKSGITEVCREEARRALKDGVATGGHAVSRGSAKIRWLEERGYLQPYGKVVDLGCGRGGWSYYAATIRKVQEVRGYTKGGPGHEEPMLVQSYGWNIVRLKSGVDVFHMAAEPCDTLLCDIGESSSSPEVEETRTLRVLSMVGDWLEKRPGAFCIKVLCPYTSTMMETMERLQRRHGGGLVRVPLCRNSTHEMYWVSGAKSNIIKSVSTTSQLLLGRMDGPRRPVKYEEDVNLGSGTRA
T2 sequence (O43148 whole entry): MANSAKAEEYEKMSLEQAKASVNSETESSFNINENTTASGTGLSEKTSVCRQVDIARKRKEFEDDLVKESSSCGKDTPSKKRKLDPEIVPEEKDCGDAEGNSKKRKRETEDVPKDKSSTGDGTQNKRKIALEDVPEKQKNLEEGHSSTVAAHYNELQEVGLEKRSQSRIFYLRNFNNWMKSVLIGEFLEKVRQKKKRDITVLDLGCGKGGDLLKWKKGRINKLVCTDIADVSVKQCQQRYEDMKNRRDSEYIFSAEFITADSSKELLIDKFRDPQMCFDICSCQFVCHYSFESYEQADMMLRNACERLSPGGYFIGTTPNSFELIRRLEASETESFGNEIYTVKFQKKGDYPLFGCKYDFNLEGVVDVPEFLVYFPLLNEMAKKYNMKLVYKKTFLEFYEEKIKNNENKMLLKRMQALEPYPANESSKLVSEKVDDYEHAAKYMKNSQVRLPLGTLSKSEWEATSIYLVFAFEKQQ
Chain of DENV NS5-MTase (P27915 2491-2753): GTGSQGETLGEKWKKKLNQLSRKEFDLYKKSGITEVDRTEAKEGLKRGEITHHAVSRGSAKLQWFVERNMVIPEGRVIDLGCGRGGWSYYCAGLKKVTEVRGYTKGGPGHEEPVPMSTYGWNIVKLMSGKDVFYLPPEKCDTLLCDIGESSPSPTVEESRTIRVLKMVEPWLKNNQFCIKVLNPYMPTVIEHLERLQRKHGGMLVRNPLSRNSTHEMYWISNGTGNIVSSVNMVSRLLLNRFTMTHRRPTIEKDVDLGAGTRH

As to `CCn1c2ccccc2c2cc(NC(=O)Nc3ccc([N+](=O)[O-])cc3C)ccc21` [Compound 6], in “in vitro [1]”, the CC50 was more than 3.99 µM. In addition, the CC50 in the data set on host cell stood at 3.99 µM. At ZIKV NS5-MTase, this compound registered an IC50 of 35 ± 5 µM and an inhibition at 50 µM of more than 30%. The IC50 at hRNMT (human N7-MTase) was determined as 13.9 ± 0.7 µM. Besides, in the data set on ZIKV, the concentration giving a half-maximal response (EC50) was more than 3.99 µM and the “ZIKV EC50” value is listed as “devoid of any antiviral activity”.
In “in vitro [1]”, `CCn1c2ccccc2c2cc(NC(=O)Nc3ccc([N+](=O)[O-])cc3Cl)ccc21` [Compound 9a] showed a CC50 of 30.7 µM. Besides, at ZIKV NS5-MTase, the IC50 came out at 46 ± 1.1 µM and the inhibition at 50 µM is more than 30%. The IC50 on hRNMT (human N7-MTase) is approximately 122 µM. Besides, the EC50 with ZIKV was more than 50 µM.
Consider `CCn1c2ccccc2c2cc(NC(=O)Nc3ccc(C#N)cc3)ccc21` [Compound 9b], for which the CC50 in “in vitro [1]” was more than 10 µM. Moreover, the IC50 on ZIKV NS5-MTase was approximately 144 µM; on hRNMT (human N7-MTase) it was approximately 253 µM. Moreover, in the data set on ZIKV, the EC50 is more than 10 µM.
In the case of `CCn1c2ccccc2c2cc(NC(=O)Nc3ccc(OC)cc3OC)ccc21` [Compound 9c], the CC50 in the data set “in vitro [1]” is more than 10 µM. The IC50 at hRNMT (human N7-MTase) came out at 27.4 ± 1.9 µM. The same compound returned an EC50 in the data set on ZIKV of more than 10 µM.
Turning to `CCn1c2ccccc2c2cc(NC(=O)Nc3ccc(I)cc3)ccc21` [Compound 9d], in “in vitro [1]”, the CC50 was more than 50 µM. Further, on ZIKV NS5-MTase, the IC50 was approximately 397 µM and the inhibition at 50 µM is more than 30%. Besides, the IC50 on hRNMT (human N7-MTase) is 5.3 ± 0.4 µM. The same compound yielded an EC50 with ZIKV of more than 50 µM.
`CCn1c2ccccc2c2cc(NC(=O)Nc3ccc(C(F)(F)F)cc3)ccc21` [Compound 9f]: on hRNMT (human N7-MTase), the IC50 amounted to 6.8 ± 0.5 µM.
In the data set “in vitro [1]”, `CCn1c2ccccc2c2cc(NC(=S)NCc3ccccc3)ccc21` [Compound 11b] showed a CC50 of 19.6 µM. For the same compound, the IC50 at ZIKV NS5-MTase was 70 ± 1.3 µM; at hRNMT (human N7-MTase) it was approximately 112 µM. In the data set on ZIKV, this compound gave an EC50 of 4.78 µM.
Regarding `CCn1c2ccccc2c2cc(NC(=O)Nc3ccc(N)cc3C)ccc21` [Compound 15], the CC50 in the data set “in vitro [1]” was more than 12.5 µM; in “in vitro [2]” it was 20 µM. At ZIKV NS5-MTase, this compound gave an inhibition at 50 µM of 25%. Besides, at DENV NS5-MTase, the “inhibition of DENV NS5-MTase” value is recorded as “did not show any effect”. The concentration giving a half-maximal response (EC50) in the data set on DENV amounted to 9.75 µM; in the data set with ZIKV, 1.67 µM.
Regarding `CCn1c2ccccc2c2cc(NC(=O)C(N)CCCCN)ccc21` (stereo not shown) [Compound 16], the “inhibition of ZIKV NS5-MTase” value on ZIKV NS5-MTase is recorded as “barely inhibited”.
Turning to `Cc1cc([N+](=O)[O-])ccc1NC(=O)Nc1ccc2c(c1)c1ccccc1n2CCc1ccccc1` [Compound 21b], half-maximal cytotoxicity in the data set “in vitro [1]” (CC50) was put at 20 µM. Also, in the data set on host cell, the “ZIKV CC50” value is recorded as “showed toxicity”. On ZIKV NS5-MTase, this compound registered an IC50 of 114 ± 1.3 µM and an inhibition at 50 µM of more than 30%. The same compound displayed an EC50 in the data set with ZIKV of 12.5 µM.
On ZIKV NS5-MTase, `O=C(Nc1ccc(I)cc1)Nc1ccc2c(c1)c1ccccc1n2Cc1ccccc1` [Compound 21c] gave a half-inhibitory concentration (IC50) of 23 ± 1.2 µM and an inhibition at 50 µM of more than 30%.
As for `O=C(Nc1ccc(I)cc1)Nc1ccc2c(c1)c1ccccc1n2CCc1ccccc1` [Compound 21d], the midpoint of cytotoxicity in the data set “in vitro [1]”, the CC50, lay at 100 µM. Moreover, on ZIKV NS5-MTase, the “inhibition of ZIKV NS5-MTase” value is on record as “poor inhibition”. Besides, the EC50 with ZIKV was 25 µM.
At ZIKV NS5-MTase, `COc1ccc(NC(=O)Nc2ccc3c(c2)c2ccccc2n3Cc2ccccc2)c(OC)c1` [Compound 21e] came in with an IC50 of 48 ± 1.3 µM.
`COc1ccc(NC(=O)Nc2ccc3c(c2)c2ccccc2n3CCc2ccccc2)c(OC)c1` [Compound 21f]: the midpoint of cytotoxicity in the data set “in vitro [1]”, the CC50, lay at 20 µM. Also, the “ZIKV CC50” value with host cell is “showed toxicity”. This compound also had an IC50 at ZIKV NS5-MTase of 26 ± 1.2 µM. Besides, the EC50 with ZIKV is more than 20 µM.
Regarding `Nc1ncnc2c1ncn2[C@@H]1O[C@H](C[C@@H](N)CC[C@H](N)C(=O)O)[C@@H](O)[C@H]1O` [Sinefungin, reference compound], the IC50 on ZIKV NS5-MTase came out at 1.18 ± 0.05 µM.

The term CC50 denotes the concentration at which the toxic effect on the cells reaches its halfway point. Lower therefore signals greater toxicity to the cells. For orientation: IC50 means the midpoint of a concentration-inhibition curve. The inhibition is the relative decrease from the control value, in per cent. A lower inhibition goes with a weak effect. As usually defined, the EC50 is the midpoint of the concentration-response curve. Higher therefore signals lower potency in that assay.
